Test: xn = mol fraction of the nth substance listed
Conditions: 101 kPa

CCCC[N+](C)(C)C.O=S(=O)([N-]S(=O)(=O)C(F)(F)F)C(F)(F)F + CC(O)C(C)O
x2 = 0
Conditions	viscosity [mPa·s]
323.15 K	35.6
333.15 K	25.7
338.15 K	22.1
343.15 K	19.2

CCCC[N+](C)(C)C.O=S(=O)([N-]S(=O)(=O)C(F)(F)F)C(F)(F)F + CC(O)CO
viscosity [mPa·s]
Conditions	x2 = 0	x2 = 0.132	x2 = 0.1909	x2 = 0.3054	x2 = 0.5274	x2 = 0.7262	x2 = 0.8149	x2 = 0.8843
323.15 K	–	25.2	22.8	19.6	15.85	14.66	12.95	–
328.15 K	30	21.4	–	16.72	13.36	12.33	10.63	9.67
333.15 K	25.7	18.4	16.53	–	11.41	10.46	8.85	8.04
338.15 K	–	15.98	14.01	–	–	8.91	–	6.68
343.15 K	–	13.99	12.36	10.89	8.6	7.59	6.35	5.62
348.15 K	–	12.65	–	9.89	–	6.68	–	4.96
353.15 K	15.63	11.91	10.8	9.3	7.51	6.1	–	4.62

C[N+](C)(C)CCO.O=S(=O)([N-]S(=O)(=O)C(F)(F)F)C(F)(F)F + CC(O)CO
viscosity [mPa·s]
Conditions	313.15 K	318.15 K	323.15 K	328.15 K	333.15 K	338.15 K	343.15 K	348.15 K	353.15 K
x2 = 0	–	46.8	39.3	33.4	–	–	21.6	–	16.9
x2 = 0.2189	37.3	31.1	26.2	22.3	19.2	16.54	–	12.98	11.55
x2 = 0.3834	31.1	26.2	21.7	18.6	15.87	13.73	–	10.65	9.42
x2 = 0.4786	–	–	19.8	16.76	14.37	12.63	10.88	9.6	8.48
x2 = 0.5867	26.7	21.9	18.2	–	13.15	11.34	9.88	8.68	7.67
x2 = 0.7668	22	17.9	14.79	12.4	10.52	9.01	7.78	6.77	5.91
x2 = 0.8744	19.7	15.95	13.08	10.84	9.12	7.72	–	5.69	4.91

CCCC[N+](C)(C)C.O=S(=O)([N-]S(=O)(=O)C(F)(F)F)C(F)(F)F + CCC(O)CO
viscosity [mPa·s]
Conditions	323.15 K	328.15 K	333.15 K	338.15 K	343.15 K	348.15 K	353.15 K
x2 = 0	35.6	–	25.7	22.1	19.2	16.81	15.63
x2 = 0.2291	22.5	19.1	16.35	–	–	10.93	10.09
x2 = 0.3543	19.1	16.13	13.78	–	10.4	9.13	8.39
x2 = 0.5116	16.9	14.18	12.01	10.29	8.9	7.77	–
x2 = 0.6289	–	13.27	11.03	9.35	8.1	–	6.33
x2 = 0.8622	13.55	10.93	8.96	7.44	6.26	5.32	–
x2 = 0.9031	13.23	10.7	8.68	7.12	5.98	5.19	4.58

CC(O)C(C)O (configuration not stated) + CCCC[N+](C)(C)C.O=S(=O)([N-]S(=O)(=O)C(F)(F)F)C(F)(F)F
viscosity [mPa·s]
Conditions	x1 = 0.0879	x1 = 0.3137	x1 = 0.4515	x1 = 0.557	x1 = 0.6216	x1 = 0.8142	x1 = 1
323.15 K	28.8	20.9	18.2	–	–	15.29	17
328.15 K	24.4	17.7	15.32	–	13.26	12.34	13.13
333.15 K	20.9	–	–	–	11.09	10.19	10.34
338.15 K	18.1	13.22	11.32	10	9.39	8.53	8.27
343.15 K	15.83	11.16	9.89	8.68	8.03	7.33	–

CC(O)CO (configuration not stated) + CCCC[N+](C)(C)C.O=S(=O)([N-]S(=O)(=O)C(F)(F)F)C(F)(F)F
x1 = 1
Conditions	viscosity [mPa·s]
323.15 K	12.2
328.15 K	9.85
333.15 K	8
338.15 K	6.41
343.15 K	5.27
348.15 K	4.54

CCC(O)CO (configuration not stated) + CCCC[N+](C)(C)C.O=S(=O)([N-]S(=O)(=O)C(F)(F)F)C(F)(F)F
x1 = 1
Conditions	viscosity [mPa·s]
323.15 K	12.85
333.15 K	8.33
338.15 K	6.83
343.15 K	5.65
348.15 K	4.75
353.15 K	4.03

CC(O)CO (configuration not stated) + C[N+](C)(C)CCO.O=S(=O)([N-]S(=O)(=O)C(F)(F)F)C(F)(F)F
x1 = 1
Conditions	viscosity [mPa·s]
313.15 K	19.1
318.15 K	15.17
323.15 K	12.2
328.15 K	9.85
333.15 K	8
338.15 K	6.4
343.15 K	5.27
348.15 K	4.5
353.15 K	3.78

OCCCCCO + C[N+](C)(C)CCO.O=S(=O)([N-]S(=O)(=O)C(F)(F)F)C(F)(F)F
x1 = 1
Conditions	viscosity [mPa·s]
313.15 K	45.6
318.15 K	36.9
323.15 K	29.8
328.15 K	24.5
338.15 K	16.84
343.15 K	14.44

OCCCO + C[N+](C)(C)CCO.O=S(=O)([N-]S(=O)(=O)C(F)(F)F)C(F)(F)F
x1 = 1
Conditions	viscosity [mPa·s]
313.15 K	20.3
318.15 K	16.88
323.15 K	14.16
328.15 K	12.01
333.15 K	10.24
343.15 K	7.47
348.15 K	6.62
353.15 K	5.8

C[N+](C)(C)CCO.O=S(=O)([N-]S(=O)(=O)C(F)(F)F)C(F)(F)F + OCCCCCO
viscosity [mPa·s]
Conditions	x2 = 0	x2 = 0.1351	x2 = 0.2149	x2 = 0.4145	x2 = 0.5087	x2 = 0.6847	x2 = 0.7858	x2 = 0.9071
313.15 K	56.4	49.5	45.2	38.4	37	36.8	37.8	40.8
318.15 K	46.8	40.8	–	31.4	30.2	29.7	30.3	32.9
323.15 K	–	34.2	–	26.1	24.9	24.3	24.7	26.8
328.15 K	33.4	28.9	–	22	20.9	20.2	20.2	22
333.15 K	28.6	24.7	–	18.7	17.7	17	16.86	18.3
338.15 K	24.6	21.3	19.5	–	15.17	14.44	14.12	15.4
343.15 K	21.6	18.6	17	13.98	13.08	–	11.92	12.99

C[N+](C)(C)CCO.O=S(=O)([N-]S(=O)(=O)C(F)(F)F)C(F)(F)F + OCCCO
viscosity [mPa·s]
Conditions	313.15 K	318.15 K	323.15 K	328.15 K	333.15 K	338.15 K	343.15 K	348.15 K	353.15 K
x2 = 0	56.4	–	39.3	–	28.6	24.6	21.6	–	16.9
x2 = 0.1272	–	39.1	32.8	27.9	–	20.8	18.1	16	14.19
x2 = 0.2297	39.8	33.1	27.9	23.8	–	–	–	13.8	12.29
x2 = 0.4106	–	25.1	21.2	18.1	15.6	13.62	11.96	10.58	9.49
x2 = 0.5712	–	20.8	17.5	14.95	12.87	11.18	9.79	–	7.65
x2 = 0.6946	22.2	18.4	15.47	13.14	–	–	8.51	7.46	6.58
x2 = 0.8367	20.4	16.91	–	–	10.27	8.86	7.74	6.78	–
x2 = 0.9474	19.5	16.22	13.62	11.54	9.86	–	7.36	6.39	5.57
